Data on 3 compounds can be found in article PMC9519446, “Discovery of an Orally Active Benzoxaborole Prodrug Effective in the Treatment of Chagas Disease in Non-human Primates” (Nature microbiology, 2022).

For series [1], the system named is T. cruzi intracellular amastigotes. Nature of the series: In vitro anti-T. cruzi intracellular amastigote growth inhibition assay (tdTomato fluorescence over 72 hours, Vero cells). Format: cell-based, Trypanosoma cruzi. Particulars: Trypanosoma cruzi, Vero. As to the method:
(§1) The in vitro anti-T. cruzi amastiogote activity assay was performed and optimized based on the protocol described previously. The change in tdTomato fluorescence intensity was determined as a measurement of growth over 72 hours of culture. For assaying drug effects on extracellular amastigotes, trypomastigotes were collected from infected Vero cell cultures and converted in acidic media as previously described. Amastigotes (50,000/well) were incubated with 2-fold serial dilutions of compounds for 48 hours. The ATP production was used as an indication of growth in this case, and was measured by ATPlite Luminescence ATP Detection Assay System (PerkinElmer). Both fluorescence and luminescence were read using a BioTek Synergy Hybrid Multi-Mode reader equipped with the software Gene5 v 2.0 (BioTek). The dose-response curve was generated by […] analysis with GraphPad Prism v9.4.0 (GraphPad Software).

For series [2] the following is noted: in vivo.
The test system of series [3] is T. cruzi Brazil strain. The arrangement: method as in PMID 23945371. Particulars: cited from earlier work.
Series [4] in a line: In vitro micronucleus study. Format: cell-based.
The subject of series [5] is broad array of mammalian enzymes, receptors and ion channels. Nature of the series: Preliminary safety pharmacology panel. Format: binding.
The subject of series [6] is CPSF3-OE T. cruzi intracellular amastigotes. Nature of the series: microbe, parasite or virus in culture. Format: cell-based. Particulars: Trypanosoma cruzi, read-out: CPSF3-OE IC50, intracellular amastigotes. As to the method:
as §1
The CPSF3 gene was amplified using primers ‘[…]’ and ‘[…]’, and integrated into the pTrex vector [47] by NEBuilder HiFi DNA assembly (New England Biolabs). The construct of pTrex-CPSF was then transfected into Brazil tdTomato epimastigotes and selected by 60ug/ml blasticidin.
To confirm the CPSF overexpression in the selected transfectants, RNA was extracted as previously described and converted to cDNA using SuperScript Reverse Transcriptase (Invitrogen). Quantitative PCR reactions were performed in triplicate on the C1000 Touch Bio-Rad CFX96 real-time PCR detection system for CPSF using primer sets CPSF-1 (5'-[…]-3' and 5'-[…]-3') and CPSF-2 (5'-[…]-3' and 5'-[…]-3') in both control and CPSF over-expressing parasites, and the expression level was normalized to tubulin which was amplified using primers: ‘[…]’ and ‘[…]’.

Series [7] deals with T. cruzi Brazil strain. Nature of the series: Mouse cure assays (daily oral treatment, immunosuppression, qPCR of skeletal muscle, blood microscopy, hemoculture). Format: in vivo, C57BL/6 mice. The note with it: individual mice. Here is the method: Male or female C57BL/6 mice were intraperitoneally infected with 10^4 trypomastigotes of the Brazil strain. Mouse infection was confirmed at 25-30 dpi by detection of CD8^+ T cells specific against the T. cruzi TSKb20 peptide in blood. Compounds resuspended in 1% carboxymethyl cellulose and 0.1% Tween 80, were administered daily by gavage at the specified concentrations. In order to optimally detect persistent infection, immune responses in the mice were suppressed by intraperitoneal injection of four doses of cyclophosphamide every 2-3 days (200 mg/kg/day), beginning one week after the end of therapeutic treatment. At the end of the immunosuppression regimen, peripheral blood was checked under light microscope for parasites and cultured in LDNT media. Mouse skeletal muscle samples were obtained at the end of the immunosuppression and processed for T. cruzi-DNA detection by qPCR as previously described.

The subject of series [8] is TcCBP KO T. cruzi intracellular amastigotes. Kind of series: microbe, parasite or virus in culture. Particulars: Trypanosoma cruzi, read-out: TcCBP KO IC50. Format: cell-based. As to the method:
as §1
The CBPs knockout was produced using ribonucleoprotein (RNP) complexes as previously described. Briefly, Brazil tdTomato strain epimastigotes were electroporated with RNP complexes containing SaCas9 and an sgRNA targeting CBP gene TcBrA4_0048170, plus a repair template containing stop codons in all three reading frames and the M13 sequence for use as a PCR anchor. The sgRNA targeted the ‘[…]” sequence. After 2 days of recovery, single-cell clones were derived by depositing epimastigotes into a 96-well plate at a density of 0.5 cell/well by using a MoFlo Astrios EQ cell sorter (Beckman Coulter). DNA isolation was performed for clones, and primer pair of 5’-[…]-3’ and 5’- […] -3’ was used for amplifying the wild type allele, while primer pair of M13-F: 5’- […] -3’ and 5’- […] -3’ was used for amplifying the mutant allele.

Series [9] can be described thus: High dose 7-day toxicology study with exposure. The note with it: 7-day toxicology studies / rats.
Series [10] concerns representative cytochrome P450 enzymes. Kind of series: Cytochrome P450 inhibition. Format: in vitro ADME. Particulars: 10 uM.
A further series relates to T. cruzi. The note with it: cited from earlier work.
Series [11] relates to T. cruzi CL strain in Vero cells. Nature of the series: RNA-seq: parasite mRNA relative to host cell (Vero) mRNA. Format: cell-based, Trypanosoma cruzi. As to the method:
The drug concentration used for treatment was set at 5 times the IC50. Samples were collected at several time points for RNA extraction as previously described. rRNA-depleted RNA library construction and RNA sequencing using Illumina Nextseq 75PE was carried out by Georgia Genomics and Bioinformatics Core (GGBC, University of Georgia, Georgia). […] The mapping rate was quantified by HTseq v0.6.1 [51].

The mark [12] stands for this setting: in vitro, Fig. 1a, Extended Data Fig. 1a, read-out: T. cruzi IC50.

The structures appear in SMILES notation. Several values for one entry are separate records, joined by “and”; a condition that tells them apart may be missing. Identical values can stand only once. Like-named read-outs stand apart in the source and are kept apart here.

For orientation: IC50 means the concentration that gives 50% inhibition. For `O=C(Nc1ccc2c(c1)B(O)OC2)c1ccc(F)cc1C(F)(F)F` [AN4169], in [1] (setting [12]), the IC50 is 350 nM. Moreover, the rodent tolerability result in series [2] is reported as “insufficient therapeutic margin”. In the series with T. cruzi Brazil strain [3] (mice infected with the T. cruzi Brazil strain), the “cure of infected mice” value is given as 100%.

As for `Cc1c(C(=O)N[C@H](C(=O)OCc2ccc(F)cc2)C(C)(C)O)ccc2c1B(O)OC2` [AN14817], in the series “Ames study”, the “genotoxicity, Ames” value is recorded as “non-genotoxic”. Moreover, the activity at 0.00407 µM in series [1] (72 h, read-out: % of maximum, WT, [uM] -2.39 [sic], single replicates) is 79%. Also, the IC50 in [1] (read-out: WT IC50, WT intracellular amastigotes, control of CPSF3-OE comparison) was 6.3 nM; in [1] (read-out: WT IC50, WT intracellular amastigotes, control of TcCBP KO comparison), 6.3 nM; in series [1] (setting [12]), 12 nM; in series [6] it was 24.8 nM; in [8], 2200 nM. The “genotoxicity, in vitro micronucleus” value in series [4] is listed as “non-genotoxic”. For the same compound, the “affinity for mammalian enzymes, receptors and ion channels” value in [5] is “little to no affinity”. The “Parasite equivalent/ 50 ng of DNA of skeletal muscle” value is 0.12 Parasite equivalent/ 50 ng of DNA and 0.09 Parasite equivalent/ 50 ng of DNA and 0.00383 Parasite equivalent/ 50 ng of DNA and 0.0341 Parasite equivalent/ 50 ng of DNA and 0.00725 Parasite equivalent/ 50 ng of DNA and 0.00351 Parasite equivalent/ 50 ng of DNA and 0.0145 Parasite equivalent/ 50 ng of DNA and 0.17 Parasite equivalent/ 50 ng of DNA in the series with T. cruzi Brazil strain [7] (Fig. 3b, mice treated for 40 days); 0.30 Parasite equivalent/ 50 ng of DNA and 0.59 Parasite equivalent/ 50 ng of DNA and 0.42 Parasite equivalent/ 50 ng of DNA and 0.29 Parasite equivalent/ 50 ng of DNA and 0.40 Parasite equivalent/ 50 ng of DNA with T. cruzi Brazil strain [7] (Fig. 3c, mice treated for 20 days). In addition, the “dose proportionality of exposure” value in [9] is listed as “non-dose proportional exposure”. In addition, the “inhibition of representative cytochrome P450 enzymes” value in series [10] is given as “did not demonstrate significant inhibition”.

`O=C(Cn1ccnc1[N+](=O)[O-])NCc1ccccc1` [benznidazole, reference compound]: the “failures in treatment trial” value in the series with T. cruzi (T. cruzi-infected NHPs, ref Tarleton, et al., in preparation) is over 60%. Also, the cure rate in the series with T. cruzi (cyno macaques, ref unpublished result of the authors) is given as ~ 30%. In addition, in series [11] (0hpt), the “RNA-seq reads mapped to African green monkey” value is on record as 52, the “RNA-seq reads mapped to T.cruzi CL Brener” value amounted to 17 and the RNA-seq reads unmapped was determined as 31. Also, in [11] (12hpt), the “RNA-seq reads mapped to African green monkey” value was found to be 61, the “RNA-seq reads mapped to T.cruzi CL Brener” value was 14 and the RNA-seq reads unmapped was 25. In series [11] (24hpt), the “RNA-seq reads mapped to African green monkey” value was 62, the “RNA-seq reads mapped to T.cruzi CL Brener” value was found to be 12 and the RNA-seq reads unmapped amounted to 27. Also, in the series with T. cruzi Brazil strain [3] (mice), the “cure with 20 days of treatment” value was “only partially effective in generating cure”.
